“And” between values parts separate entries of the source, which are not always exact repeats. Identical values can stand only once.
Legend:
PIK3CD (Human) [1] = target: PIK3CD (Human) (UniProt O00329); experiment: Assessment of Stimulus Induced TCE Cell Proliferation; details: t cells
PIK3CB = PIK3CB (UniProt P42338); experiment: Inhibition of PIK3CB Kinase Activity; details: for inhibition: concentration not given here
PIK3CA = PIK3CA (UniProt P42336); experiment: Inhibition of PIK3CA Kinase Activity; details: for inhibition: concentration not given here
PIK3CD (mouse) = experiment: Assessment of Stimulus Induced B Cell Proliferation; details: b cells
PIK3CD (Human) [2] = target: PIK3CD (Human) (UniProt O00329); experiment: Evaluation of PIK3CD inhibitors on Elastase Release in Human PMN Cells
PIK3CG = PIK3CG (UniProt P48736); experiment: Inhibition of PIK3CG Kinase Activity; details: for inhibition: concentration not given here
PIK3CD (Human) [3] = target: PIK3CD (Human) (UniProt O00329); experiment: Evaluation of PIK3CD inhibitors on Neutrophil Migration; details: pmn

PIK3CD (Human), sequence (O00329 whole entry, looked up): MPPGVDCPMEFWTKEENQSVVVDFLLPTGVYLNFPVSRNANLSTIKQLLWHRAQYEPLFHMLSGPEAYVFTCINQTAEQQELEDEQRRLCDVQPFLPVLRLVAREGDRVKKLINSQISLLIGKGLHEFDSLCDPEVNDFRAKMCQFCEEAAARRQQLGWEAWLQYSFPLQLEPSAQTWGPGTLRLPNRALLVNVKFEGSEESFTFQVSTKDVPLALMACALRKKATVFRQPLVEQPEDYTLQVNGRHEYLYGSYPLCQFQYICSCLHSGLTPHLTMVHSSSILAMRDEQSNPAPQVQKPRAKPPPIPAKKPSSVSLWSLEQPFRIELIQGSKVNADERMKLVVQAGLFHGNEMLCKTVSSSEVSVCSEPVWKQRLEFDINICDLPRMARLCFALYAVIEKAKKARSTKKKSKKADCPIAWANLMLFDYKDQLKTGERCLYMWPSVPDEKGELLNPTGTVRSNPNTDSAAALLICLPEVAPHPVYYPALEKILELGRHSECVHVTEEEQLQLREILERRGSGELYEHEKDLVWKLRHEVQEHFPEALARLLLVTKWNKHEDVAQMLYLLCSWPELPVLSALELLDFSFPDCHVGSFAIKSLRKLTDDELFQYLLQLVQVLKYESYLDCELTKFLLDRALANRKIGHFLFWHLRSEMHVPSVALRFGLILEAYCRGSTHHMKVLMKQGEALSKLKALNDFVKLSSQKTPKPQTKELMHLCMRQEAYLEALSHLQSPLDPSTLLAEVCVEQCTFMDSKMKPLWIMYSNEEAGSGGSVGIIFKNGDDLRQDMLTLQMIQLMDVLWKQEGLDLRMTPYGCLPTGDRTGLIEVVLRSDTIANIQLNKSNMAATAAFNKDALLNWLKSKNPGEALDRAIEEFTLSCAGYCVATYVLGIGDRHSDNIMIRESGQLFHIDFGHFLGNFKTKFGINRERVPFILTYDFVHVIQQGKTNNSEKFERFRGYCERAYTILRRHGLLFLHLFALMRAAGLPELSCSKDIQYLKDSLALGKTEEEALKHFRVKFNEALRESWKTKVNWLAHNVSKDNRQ
PIK3CB, sequence (P42338 whole entry, looked up): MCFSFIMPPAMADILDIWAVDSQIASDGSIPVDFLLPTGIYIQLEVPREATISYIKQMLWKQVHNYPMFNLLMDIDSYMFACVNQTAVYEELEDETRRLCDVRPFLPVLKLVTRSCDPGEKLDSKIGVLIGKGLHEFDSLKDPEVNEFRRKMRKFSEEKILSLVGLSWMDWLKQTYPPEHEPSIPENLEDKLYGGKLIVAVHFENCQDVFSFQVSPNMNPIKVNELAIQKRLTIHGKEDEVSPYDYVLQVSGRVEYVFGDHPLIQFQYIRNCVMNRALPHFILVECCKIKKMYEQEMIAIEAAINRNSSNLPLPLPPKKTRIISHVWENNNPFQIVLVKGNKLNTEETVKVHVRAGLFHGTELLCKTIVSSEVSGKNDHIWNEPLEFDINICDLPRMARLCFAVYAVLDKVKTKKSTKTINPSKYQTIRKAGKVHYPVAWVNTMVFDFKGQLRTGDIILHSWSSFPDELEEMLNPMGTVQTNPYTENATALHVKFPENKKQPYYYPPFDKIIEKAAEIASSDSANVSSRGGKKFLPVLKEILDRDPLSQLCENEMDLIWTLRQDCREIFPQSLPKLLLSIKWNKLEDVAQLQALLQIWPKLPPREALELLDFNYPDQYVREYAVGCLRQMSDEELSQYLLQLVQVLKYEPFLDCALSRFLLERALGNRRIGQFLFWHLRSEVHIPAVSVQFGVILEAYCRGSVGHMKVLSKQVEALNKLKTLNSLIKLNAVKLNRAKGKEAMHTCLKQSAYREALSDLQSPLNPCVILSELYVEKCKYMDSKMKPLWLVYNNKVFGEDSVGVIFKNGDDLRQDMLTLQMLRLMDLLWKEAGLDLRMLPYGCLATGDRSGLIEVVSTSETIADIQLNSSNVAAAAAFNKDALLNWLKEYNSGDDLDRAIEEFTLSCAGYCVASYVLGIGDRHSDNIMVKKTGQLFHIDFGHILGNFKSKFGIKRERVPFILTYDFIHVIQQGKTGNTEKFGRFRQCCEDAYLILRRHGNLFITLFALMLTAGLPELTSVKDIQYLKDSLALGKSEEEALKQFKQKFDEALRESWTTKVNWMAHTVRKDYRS
PIK3CA, sequence (P42336 whole entry, looked up): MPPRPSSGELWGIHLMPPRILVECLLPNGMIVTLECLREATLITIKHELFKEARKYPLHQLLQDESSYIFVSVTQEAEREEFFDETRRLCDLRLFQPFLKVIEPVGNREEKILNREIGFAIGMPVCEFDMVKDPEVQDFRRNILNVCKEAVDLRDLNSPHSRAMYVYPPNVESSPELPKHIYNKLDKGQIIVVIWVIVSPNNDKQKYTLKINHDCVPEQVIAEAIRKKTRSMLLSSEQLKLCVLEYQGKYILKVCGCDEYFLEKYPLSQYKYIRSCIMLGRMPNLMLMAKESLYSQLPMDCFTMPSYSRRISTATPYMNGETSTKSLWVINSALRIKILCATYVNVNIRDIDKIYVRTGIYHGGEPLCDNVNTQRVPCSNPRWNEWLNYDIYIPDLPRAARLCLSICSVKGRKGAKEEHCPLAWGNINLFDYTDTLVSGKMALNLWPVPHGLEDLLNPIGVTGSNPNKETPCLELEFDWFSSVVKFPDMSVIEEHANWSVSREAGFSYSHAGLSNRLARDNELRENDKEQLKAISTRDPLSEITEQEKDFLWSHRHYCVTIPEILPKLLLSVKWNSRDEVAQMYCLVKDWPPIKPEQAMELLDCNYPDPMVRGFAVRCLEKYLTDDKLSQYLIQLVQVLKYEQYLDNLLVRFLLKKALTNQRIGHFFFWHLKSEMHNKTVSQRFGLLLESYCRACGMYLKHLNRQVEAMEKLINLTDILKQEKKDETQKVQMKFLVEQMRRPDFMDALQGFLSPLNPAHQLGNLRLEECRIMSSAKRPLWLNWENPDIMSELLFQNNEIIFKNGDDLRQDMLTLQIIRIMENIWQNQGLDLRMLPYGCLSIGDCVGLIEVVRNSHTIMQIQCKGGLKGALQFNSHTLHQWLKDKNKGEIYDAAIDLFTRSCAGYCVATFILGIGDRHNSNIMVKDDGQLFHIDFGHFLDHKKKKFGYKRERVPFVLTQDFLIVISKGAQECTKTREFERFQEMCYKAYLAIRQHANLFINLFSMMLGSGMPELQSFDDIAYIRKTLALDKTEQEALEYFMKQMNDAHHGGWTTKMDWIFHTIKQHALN
PIK3CG, sequence (P48736 whole entry, looked up): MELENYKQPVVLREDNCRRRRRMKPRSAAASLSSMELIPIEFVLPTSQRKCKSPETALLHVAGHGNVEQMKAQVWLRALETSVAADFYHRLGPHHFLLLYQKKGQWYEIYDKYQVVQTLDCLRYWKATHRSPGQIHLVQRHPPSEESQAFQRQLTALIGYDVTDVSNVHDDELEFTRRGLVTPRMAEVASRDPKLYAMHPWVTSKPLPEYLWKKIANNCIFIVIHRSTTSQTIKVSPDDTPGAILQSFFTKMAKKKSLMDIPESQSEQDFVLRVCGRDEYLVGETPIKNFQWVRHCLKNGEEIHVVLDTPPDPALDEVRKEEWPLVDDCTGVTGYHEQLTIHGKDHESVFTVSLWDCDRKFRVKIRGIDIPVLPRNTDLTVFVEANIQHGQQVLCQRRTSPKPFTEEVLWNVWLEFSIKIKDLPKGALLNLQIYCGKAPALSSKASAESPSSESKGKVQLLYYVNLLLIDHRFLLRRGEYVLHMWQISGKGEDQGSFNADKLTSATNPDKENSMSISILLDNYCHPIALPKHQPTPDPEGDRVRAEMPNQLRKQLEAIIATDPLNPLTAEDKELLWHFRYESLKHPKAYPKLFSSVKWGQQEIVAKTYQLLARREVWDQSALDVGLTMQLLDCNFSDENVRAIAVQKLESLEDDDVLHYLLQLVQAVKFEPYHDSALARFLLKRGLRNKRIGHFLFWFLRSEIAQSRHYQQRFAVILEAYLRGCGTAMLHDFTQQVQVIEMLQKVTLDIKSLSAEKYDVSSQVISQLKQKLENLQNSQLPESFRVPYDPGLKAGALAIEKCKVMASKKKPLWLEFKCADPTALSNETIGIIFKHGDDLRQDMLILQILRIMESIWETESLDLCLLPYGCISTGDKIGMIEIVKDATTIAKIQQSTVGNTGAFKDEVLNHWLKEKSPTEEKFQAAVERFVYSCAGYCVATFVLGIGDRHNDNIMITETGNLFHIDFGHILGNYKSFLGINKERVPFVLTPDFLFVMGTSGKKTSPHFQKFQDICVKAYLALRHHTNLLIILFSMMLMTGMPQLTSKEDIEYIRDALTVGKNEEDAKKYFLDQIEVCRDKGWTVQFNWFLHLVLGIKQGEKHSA

Row | Compound | EC50 (PIK3CD (Human) [1]) [µM] | inhibition (PIK3CB) [%] | EC50 (PIK3CD (mouse)) [µM] | EC50 (PIK3CD (Human) [2]) [µM] | IC50 (PIK3CB) | inhibition (PIK3CA) [%] | further results
1 | Nc1ncnc2c1ncn2Cc1nc2cc(F)ccc2c(=O)n1-c1ccccc1Cl | 5.7 | 47 | 3.9 |  |  |  | IC50 (PIK3CA): 92 µM
2 | O=c1c2c(Cl)cccc2nc(CSc2ncnc3[nH]cnc23)n1-c1ccccc1F |  |  | 0.3 | 0.9 | 105 µM and 55 µM |  | 
3 | O=c1c2ccccc2nc(CSc2ncnc3[nH]cnc23)n1-c1ccncc1 |  |  |  |  | 25 µM | 30 | 
4 | Cc1cccc2nc(CSc3ncnc4[nH]cnc34)n(-c3ccccc3C(C)C)c(=O)c12 | 2.9 |  | 0.2 | 0.3 |  |  | 
5 | COc1cccc(-n2c(CSc3ncnc4[nH]cnc34)nc3ccccc3c2=O)c1 |  | 36 |  |  |  | 23 | 
6 | O=c1c2ccccc2nc(CSc2ncnc3[nH]cnc23)n1N1CCOCC1 |  |  | 0.9 | 5 |  |  | inhibition (PIK3CG): 57%
7 | Nc1ncnc2c1ncn2Cc1nc2ccc(Cl)cc2c(=O)n1-c1ccccc1Cl |  | 11 |  |  |  | 7 | 
8 | O=c1c2cc3ccccc3cc2nc(CSc2ncnc3[nH]cnc23)n1-c1ccccc1Cl | 0.9 |  | 0.9 |  | 105 µM and 100 µM | 0 | IC50 (PIK3CA): 67 µM
9 | O=c1c2c(F)cccc2nc(CSc2ncnc3[nH]cnc23)n1Cc1ccccc1 | 2.6 | 23 | 1.4 |  |  | 17 | 
10 | O=c1c2cccc(Cl)c2nc(CSc2ncnc3[nH]cnc23)n1-c1ccccc1Cl | 3.5 |  | 1.8 |  | 110 µM |  | IC50 (PIK3CA): 100 µM
11 | Cc1cccc2nc(Cn3cnc4c(N)ncnc43)n(-c3ccccc3Cl)c(=O)c12 | 4.2 |  | 0.3 | 0.4 | 30 µM and 72 µM |  | 
12 | Cc1cccc2nc(CSc3ncnc4[nH]cnc34)n(-c3c(Cl)cccc3Cl)c(=O)c12 |  |  | 0.6 |  | 11 µM and 103 µM | 8 | IC50 (PIK3CA): 19 µM
13 | Cc1ccccc1-n1c(CSc2ncnc3[nH]cnc23)nc2cccc(Cl)c2c1=O |  |  | 0.2 | 0.3 |  | 26 | IC50 (PIK3CA): 48 µM
14 | O=c1c2ccccc2nc(CSc2ncnc3[nH]ncc23)n1-c1ccccc1Cl | 5.9 | 29 | 3.1 | > 20 |  | 38 | EC50 (PIK3CD (Human) [3]): 1 µM; IC50 (PIK3CA): 105 µM
15 | Cc1ccccc1-n1c(Cn2cnc3c(N)ncnc32)nc2cccc(C)c2c1=O |  |  | 0.1 |  |  |  | 
16 | Cc1cccc2nc(Cn3cnc4c(N)ncnc43)n(-c3ccccc3F)c(=O)c12 | 5 |  | 0.4 | 0.9 | 95 µM and 14 µM |  | IC50 (PIK3CA): 90 µM and 70 µM
17 | CN1CCN(n2c(CSc3ncnc4[nH]cnc34)nc3ccccc3c2=O)CC1 |  |  |  |  | 61 µM |  | IC50 (PIK3CA): 105 µM
18 | Nc1ncnc2c1ncn2Cc1nc2ccccc2c(=O)n1N1CCOCC1 |  | 43 |  |  |  | 11 | 
19 | Nc1ncnc2c1ncn2Cc1nc2ccc(Br)cc2c(=O)n1-c1ccccc1Cl |  | 22 |  |  |  | 12 | 
20 | COc1cc2nc(Cn3cnc4c(N)ncnc43)n(-c3ccccc3Cl)c(=O)c2cc1OC |  |  |  |  | 45 µM | 17 | 
21 | O=c1c2cc(Br)ccc2nc(CSc2ncnc3[nH]cnc23)n1-c1ccccc1Cl |  | -8 |  |  |  | 11 | 
22 | O=c1c2c(Cl)cccc2nc(CSc2ncnc3[nH]cnc23)n1-c1ccccc1-c1ccccc1 |  | 27 | 1.4 |  | 13 µM |  | 
23 | COc1ccccc1Cn1c(CSc2ncnc3[nH]cnc23)nc2ccccc2c1=O | 4.1 | 27 | 0.9 | 5.5 | 31 µM |  | EC50 (PIK3CD (Human) [3]): 0.2 µM
24 | COc1cc2nc(CSc3ncnc4[nH]cnc34)n(-c3ccccc3Cl)c(=O)c2cc1OC |  | 19 |  |  |  | 9 | 

Row | Compound | EC50 (PIK3CD (Human) [1]) [µM] | inhibition (PIK3CB) [%] | EC50 (PIK3CD (mouse)) [µM] | EC50 (PIK3CD (Human) [2]) [µM] | IC50 (PIK3CB) | inhibition (PIK3CA) [%] | further results
25 | Nc1ncnc2c1ncn2Cc1nc2cccc(Cl)c2c(=O)n1-c1ccccc1-c1ccccc1 |  |  | 0.3 | 10.5 | 6 µM and 18 µM | 30 | IC50 (PIK3CA): 82 µM
26 | CCCCn1c(CSc2ncnc3[nH]cnc23)nc2ccccc2c1=O | 2.9 |  | 1.4 | 5 |  |  | 
27 | O=c1c2cc(Cl)ccc2nc(CSc2ncnc3[nH]cnc23)n1-c1ccccc1Cl |  | 31 |  |  |  | 31 | 
28 | O=c1c2ccccc2nc(CSc2ncnc3[nH]cnc23)n1-c1cccc(Cl)c1 |  | 35 |  |  |  | 33 | 
29 | COc1ccccc1-n1c(CSc2ncnc3[nH]cnc23)nc2ccccc2c1=O |  |  |  |  | 95 µM | 36 | 
30 | O=c1c2ccc([N+](=O)[O-])cc2nc(CSc2ncnc3[nH]cnc23)n1-c1ccccc1Cl |  | 9 |  |  |  | 17 | 
31 | Nc1ncnc2c1ncn2Cc1nc2cccc(Cl)c2c(=O)n1-c1ccccc1F |  |  | 0.3 | 0.3 | 108 µM and 11 µM |  | IC50 (PIK3CG): 50 µM
32 | O=c1c2cc(F)c(F)cc2nc(CSc2ncnc3[nH]cnc23)n1-c1ccccc1Cl |  |  | > 2 | 2 | 110 µM and 58 µM |  | 
33 | Nc1ncnc2c1ncn2Cc1nc2cccc(Cl)c2c(=O)n1-c1ccccc1Cl | 5.3 |  | 0.2 | 0.3 | 6 µM and 44 µM |  | 
34 | Nc1ncnc2c1ncn2Cc1nc2cccc(F)c2c(=O)n1Cc1ccccc1 | 6.3 |  | 2 | 5 | 30 µM | -10 | 
35 | O=c1c2ccccc2nc(CSc2ncnc3[nH]cnc23)n1-c1ccc(Cl)cc1 |  | 31 |  |  |  |  | IC50 (PIK3CA): 0.7 µM
36 | Nc1ncnc2c1ncn2Cc1nc2c(Cl)cccc2c(=O)n1-c1ccccc1Cl |  |  | 1 |  | 68 µM | 18 | 
37 | COc1ccccc1-n1c(CSc2ncnc3[nH]cnc23)nc2cccc(C)c2c1=O |  |  | 0.3 | 0.5 | 30 µM and 9 µM | 19 | IC50 (PIK3CA): 30 µM
38 | COc1cccc(Cn2c(CSc3ncnc4[nH]cnc34)nc3ccccc3c2=O)c1 |  |  |  |  |  |  | IC50 (PIK3CG): 72 µM
39 | Cc1cccc2nc(Cn3cnc4c(N)ncnc43)n(-c3ccccc3C(C)C)c(=O)c12 | 3.4 |  | 0.1 | 0.5 |  | -10 | EC50 (PIK3CD (Human) [3]): 0.3 µM; IC50 (PIK3CA): 49 µM
40 | O=c1c2ccc(F)cc2nc(CSc2ncnc3[nH]cnc23)n1-c1ccccc1Cl | 2.3 | -1 | 1.8 |  | 110 µM |  | inhibition (PIK3CG): 40%
41 | Cc1cccc2nc(CSc3ncnc4[nH]cnc34)n(-c3ccccc3F)c(=O)c12 |  |  | 0.2 | 0.7 |  | 13 | IC50 (PIK3CA): 74 µM
42 | O=c1c2ccccc2nc(CSc2ncnc3[nH]cnc23)n1Cc1ccccc1 |  | 42 | 1.2 | 1.3 | 80 µM |  | EC50 (PIK3CD (Human) [3]): 2 µM
43 | O=c1c2cc(O)ccc2nc(CSc2ncnc3[nH]cnc23)n1-c1ccccc1Cl |  | 24 |  | 2.9 |  |  | IC50 (PIK3CA): 100 µM
44 | CCOC(=O)Cn1c(CSc2ncnc3[nH]cnc23)nc2cccc(F)c2c1=O |  | 26 |  | 9 |  | 2 | 
45 | CCCCn1c(Cn2cnc3c(N)ncnc32)nc2ccccc2c1=O |  |  |  |  | 41 µM | 1 | 
46 | O=c1c2c(Cl)cccc2nc(CSc2ncnc3[nH]cnc23)n1-c1ccccc1Cl | 4.4 |  | 0.3 | 0.3 |  |  | EC50 (PIK3CD (Human) [3]): 0.3 µM
47 | O=c1c2cc(F)ccc2nc(CSc2ncnc3[nH]cnc23)n1-c1ccccc1Cl |  | 19 | 0.4 | 1 | 13 µM |  | 
48 | O=c1c2ccccc2nc(CSc2ncnc3[nH]cnc23)n1-c1ccccc1 |  |  | 1.4 |  |  |  | inhibition (PIK3CG): 39%

Reference: the Kinase Knowledgebase extract (Sharma et al. 2016)
